Where two headings read alike, the source gives them in different places.
Columns and labels:
PTP1B = target: T1, PTP1B (Homo sapiens, UniProt P18031); assay: Cellular thermal shift assay (CETSA), nontarget PTP1B immunoblot; type: binding; conditions: 100 μM CNBCA, cell lysate
T1 construct: compared it with the nontarget PTP1B protein; endogenous in cells
T1 sequence (P18031 1-435): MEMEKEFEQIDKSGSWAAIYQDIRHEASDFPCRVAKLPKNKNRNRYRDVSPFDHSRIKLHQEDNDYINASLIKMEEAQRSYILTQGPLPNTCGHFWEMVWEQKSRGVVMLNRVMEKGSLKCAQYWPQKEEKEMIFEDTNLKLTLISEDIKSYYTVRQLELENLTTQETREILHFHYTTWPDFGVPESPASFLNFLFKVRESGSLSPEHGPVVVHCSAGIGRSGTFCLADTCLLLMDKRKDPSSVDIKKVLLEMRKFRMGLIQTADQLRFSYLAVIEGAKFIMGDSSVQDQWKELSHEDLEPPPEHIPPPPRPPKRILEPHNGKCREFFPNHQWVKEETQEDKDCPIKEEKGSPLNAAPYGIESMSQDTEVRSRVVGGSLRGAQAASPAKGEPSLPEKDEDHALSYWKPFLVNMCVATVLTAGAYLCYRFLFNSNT
Description: First, we used the cellular thermal shift assay (CETSA) to show whether CNBCA binds to endogenous full-length SHP2 under cellular contexts. The CETSA assay is based on the principle that specific inhibitors bind to a target protein and confer relative stability from heat-induced denaturation and precipitation when compared to a nontarget protein present in the same milieu.[34] Accordingly, we performed CETSA to test the effect of CNBCA on the SHP2 protein stability and compared it with the nontarget PTP1B protein as described in the materials and methods.
After heat treatment, supernatants were analyzed by immunoblotting (IB) for SHP2 and the nontarget phosphatase PTP1B. […] To provide semiquantitative data, band densities of both SHP2 and PTP1B were measured and presented as bar graph. […] On the other hand, the nontarget protein PTP1B was reduced to approximately 50% at 49 °C, to 25% at 55 °C, and to less than 10% at 58 °C (Figure 3B and D).
For the CETSA study, total protein extracts (TPE) prepared from two breast cancer cells, the triple-negative MDA-MB468 and the HER2-positive JIMT-1 cells, were used. Briefly, TPE from the two cell lines were cleared by centrifugation, mixed with CNBCA at 100 μM concentration (the maximum amount used in the IC50 studies), and incubated for 10 min at room temperature to allow binding. The mixture was then divided into 100 μL aliquots, treated with heat for 10 min at different temperatures, ranging from 37 to 64 °C that differ by 3 °C intervals, cooled on ice for 10 min, centrifuged at 20,000g for 20 min to remove precipitated proteins, and the supernatants analyzed by immunoblotting (IB) for SHP2 and the nontarget PTP, PTP1B. Aliquots that were mixed with CNBCA, but not treated with heat were used as positive controls for comparison.

MDA-MB468 cells [1] = assay: Colony formation in soft agar, MDA-MB468; type: cell-based; conditions: MDA-MB468, 500 nM, 10 days, versus vehicle
Protocol: (§1) Since SHP2 is essential for the growth and transformation of BC cells,[8],[9],[11] we determined the effect of SHP2 inhibition with CNBCA in 2D and 3D culture systems. For the effect on cell growth, BC cells (BT474 and MDA-MB468) were seeded in 2D culture and treated with a single concentration of CNBCA (500 nM), the concentration that provided a 50% inhibition of SHP2 mediated signaling in BT474 cells. Images were collected at the start and every 24 h for a total of 72 h (3 days). […] For effect on anchorage independent growth, approximately 10^6 cells were seeded in soft agar as described previously,[24] and treated with CNBCA at 500 nM concentration for 10 days with refeeding and adjustment of compound concentration. […] Finally, the effect of CNBCA on cancer stem cell properties was determined by the suspension assay, in which only cells with stem-like properties only can grow and form mammospheres.[7],[24],[36] Approximately 10^6 cells were seeded in nonadherent 6 cm plates and treated with CNBCA (500 nM) for 10 days with complementation of media and drug concentration.
(§2) For colony formation studies, we used the soft agar assay, which keeps cells anchorage independently, allowing determination on the transformation phenotype of cancer cells, including breast cancer cells.[11],[35] For this assay, we first prepared a 5% stock suspension in PBS by boiling it in a microwave. […]

BT474 cells [2] = assay: Cell growth in 2D culture, BT474; type: cell-based; conditions: BT474, 500 nM, 72 h; vehicle treated cells grew to confluency
Protocol: as §1

BT474 cells [3] = assay: Basal pAkt and pERK1/2 signaling by immunoblotting in BT474 cells; type: cell-based; conditions: Homo sapiens, BT-474
Protocol: Since SHP2 is an essential mediator of mitogenic and cell survival signaling in breast cancer cells, we determined the effect of CNBCA treatment on activation of ERK1/2 and Akt in the HER2-positive BT474 and in the triple-negative MDA-MB468 cell lines. Cells growing in 2D culture were treated with varying concentrations of CNBCA, ranging from 0.250 to 2.0 μM, for 48 h, and total cell lysates were analyzed by immunoblotting (IB) with antibodies that recognize the activated forms of ERK1/2 (pERK1/2) and Akt (pAkt).

MDA-MB468 cells [4] = assay: Mammosphere formation in suspension culture, MDA-MB468; type: cell-based; conditions: MDA-MB468, 500 nM, 10 days, versus vehicle
Protocol: as §1
To further evaluate the anti-breast cancer cell effect of CNBCA, we treated cells seeded in a suspension culture known as the mammosphere assay. In this assay, cells with cancer stem cell properties can grow and form sphere-like cellular aggregates known as mammospheres.[7],[38] […]

BT474 cells [5] = assay: Colony formation in soft agar, BT474; type: cell-based; conditions: BT474, 500 nM, 10 days, versus vehicle
Protocol: as §1, §2

- PTP1B remaining in solution (band density) (PTP1B; heat 49 °C 10 min): approximately 50%
- PTP1B remaining in solution (band density) (PTP1B; heat 55 °C 10 min): 25%
- PTP1B remaining in solution (band density) (PTP1B; heat 58 °C 10 min): less than 10%
- IC50 (BT474 cells [3]; BT474, 48 h treatment, band density pAkt and pERK1/2, read-out: IC50 for SHP2 mediated Akt and ERK1/2 activation): ~1000 nM
- IC50 (BT474 cells [3]; BT474 cells, read-out: concentration that provided a 50% inhibition of SHP2 mediated signaling): 500 nM
SMILES: CCCCCCCCCOc1ccc(-c2ccc(C(=O)O)cc2)cc1CCCC(=O)O [CNBCA, 3′-(3-carboxypropyl)-4′-(nonyloxy)-[1,1′-biphenyl]-4-carboxylic acid]
- colony formation in soft agar (MDA-MB468 cells [1]): fewer and smaller colonies
- cell growth in 2D culture (BT474 cells [2]): half-confluent
- mammosphere formation (MDA-MB468 cells [4]): fewer and smaller mammospheres
- colony formation in soft agar (BT474 cells [5]): fewer and smaller colonies

— PMC10591299, “Targeting SHP2 with an Active Site Inhibitor Blocks Signaling and Breast Cancer Cell Phenotypes” (ACS Bio & Med Chem Au, 2023)
